Patent publication US10689354B2, “Aminoazole derivative” (Teijin Pharma Limited, priority 2015, dated 2020)

Tests used:
[1] = target: T1, androgen receptor (AR-LBD) (Rattus norvegicus, UniProt P15207); test: Evaluation of androgen receptor affinity (PolarScreen Androgen Receptor Competitor Assay Kit, Red; fluorescence polarization); settings: 22° C. for 5 hours, relative to binding rate of 1 μM DHT, read-out: AR affinity (pEC50) (converted)
T1 construct: 5 μL of 2×AR-LBD/Fluoromone AL Red Complex contained in the kit; purchased Invitrogen
T1 sequence (P15207 651-882 limits assumed): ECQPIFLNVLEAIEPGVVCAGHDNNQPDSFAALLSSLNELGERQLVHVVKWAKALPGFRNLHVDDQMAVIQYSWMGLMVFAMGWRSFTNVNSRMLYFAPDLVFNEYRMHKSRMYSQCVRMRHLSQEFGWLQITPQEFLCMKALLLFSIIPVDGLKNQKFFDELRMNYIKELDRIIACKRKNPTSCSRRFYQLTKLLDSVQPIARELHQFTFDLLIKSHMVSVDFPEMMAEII
Summary of the method: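 Duplicate wells; compound plus AR-LBD tracer complex incubated 22° C for 5 h, then FP measured. Effect compared with 1 μM DHT; 50%-effect concentration expressed as pEC50.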

human androgen receptor = target: T2, human androgen receptor (Homo sapiens, UniProt P10275); test: Reporter assay of an androgen receptor responsive sequence (luciferase, transiently transfected HEK293 cells); assay type: cell-based; settings: 24 hours incubation, relative to activity of 100 nM DHT, read-out: AR transcriptive activity (pEC50) (converted)
T2 construct: expressed in transfected cells; host or cells: HEK293
T2 sequence (P10275 1-920): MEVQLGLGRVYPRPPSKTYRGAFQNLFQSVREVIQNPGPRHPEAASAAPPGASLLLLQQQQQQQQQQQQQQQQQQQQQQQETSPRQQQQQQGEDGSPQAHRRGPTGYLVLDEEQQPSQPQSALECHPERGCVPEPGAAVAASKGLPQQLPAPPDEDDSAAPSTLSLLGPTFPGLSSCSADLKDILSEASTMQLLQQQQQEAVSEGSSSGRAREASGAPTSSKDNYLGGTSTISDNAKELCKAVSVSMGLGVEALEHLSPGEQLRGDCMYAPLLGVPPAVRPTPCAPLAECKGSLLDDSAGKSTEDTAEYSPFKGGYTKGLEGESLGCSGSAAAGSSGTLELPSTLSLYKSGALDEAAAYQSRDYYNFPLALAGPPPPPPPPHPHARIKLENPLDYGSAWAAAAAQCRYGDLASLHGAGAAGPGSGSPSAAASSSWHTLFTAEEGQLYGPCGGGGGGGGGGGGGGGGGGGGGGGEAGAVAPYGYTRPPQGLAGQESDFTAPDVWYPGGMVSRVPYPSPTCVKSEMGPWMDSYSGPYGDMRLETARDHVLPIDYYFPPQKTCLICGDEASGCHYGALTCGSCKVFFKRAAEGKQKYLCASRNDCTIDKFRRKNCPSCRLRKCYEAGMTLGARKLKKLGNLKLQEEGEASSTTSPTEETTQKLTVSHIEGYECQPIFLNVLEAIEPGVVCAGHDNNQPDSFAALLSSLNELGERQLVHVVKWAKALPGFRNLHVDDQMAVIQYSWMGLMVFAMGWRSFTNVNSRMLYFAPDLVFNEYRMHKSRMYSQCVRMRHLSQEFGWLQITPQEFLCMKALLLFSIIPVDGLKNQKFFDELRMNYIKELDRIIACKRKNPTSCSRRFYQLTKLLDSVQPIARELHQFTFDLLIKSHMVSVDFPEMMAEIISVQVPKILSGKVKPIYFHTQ
Summary of the method: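 Agonism scored as pEC50, fitted by 4-parameter curve against the response to 100 nM DHT, from dual-luciferase readout after 24 h compound treatment. Cells were HEK293 co-transfected (3 h) with human AR expression vector, androgen-responsive firefly reporter and Renilla control, in charcoal-stripped serum.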

EC50 [1] [nM]	EC50 (human androgen receptor) [nM]	SMILES
50.1	63.1	COc1c(F)ccc(CN(c2ccc(C#N)cc2)c2nc(C(=O)NS(C)(=O)=O)c(C)s2)c1F [Compound 111, 2-[4-cyano-N-[(2,4-difluoro-3-methoxy-phenyl)methyl]anilino]-5-methyl-N-methylsulfonyl-thiazole-4-carboxamide]
126	501	Cc1sc(N(CCc2ccc(Cl)cc2)Cc2nc(C3CC3)no2)nc1C(=O)NS(C)(=O)=O [Compound 161, 2-[2-(4-chlorophenyl)ethyl-[(3-cyclopropyl-1,2,4-oxadiazol-5-yl)methyl]amino]-5-methyl-N-methylsulfonyl-thiazole-4-carboxamide]
50.1	126	CS(=O)(=O)NC(=O)c1nc(N(Cc2cccc(OC(F)F)c2)c2ccc(C#N)cc2)sc1Cl [Example 276, 5-chloro-2-[4-cyano-N-[[3-(difluoromethoxy)phenyl]methyl]anilino]-N-methylsulfonyl-thiazole-4-carboxamide]
50.1	3160	Cc1sc(N(Cc2cccc(N3CCCCC3)c2)c2ccc(C#N)cc2)nc1C(=O)NS(C)(=O)=O [Example 217, 2-[4-cyano-N-[[3-(1-piperidyl)phenyl]methyl]anilino]-5-methyl-N-methylsulfonyl-thiazole-4-carboxamide]
251	251	Cc1sc(N(Cc2ccc3c(c2)C(O)CCO3)c2ccc(C#N)cc2)nc1C(=O)NS(C)(=O)=O (stereo not shown) [Compound 486, 2-[4-cyano-N-[(4-hydroxychroman-6-yl)methyl]anilino]-5-methyl-N-methylsulfonyl-thiazole-4-carboxamide]
100	631	Cc1sc(N(CCc2ccc(Cl)cc2)Cc2ccc(Cl)cn2)nc1C(=O)NS(C)(=O)=O [Compound 158, 2-[2-(4-chlorophenyl)ethyl-[(5-chloro-2-pyridyl)methyl]amino]-5-methyl-N-methylsulfonyl-thiazole-4-carboxamide]
39.8	> 10000	Cc1sc(N(Cc2ccc(OC(F)(F)F)cc2)c2ccc(C#N)cc2)nc1C(=O)NS(=O)(=O)CS(C)(=O)=O [Example 198, 2-[4-cyano-N-[[4-(trifluoromethoxy)phenyl]methyl]anilino]-5-methyl-N-(methylsulfonylmethylsulfonyl)thiazole-4-carboxamide]
100	501	Cc1sc(N(CCc2ccc(OC(F)F)cc2)Cc2ccccc2)nc1C(=O)NS(C)(=O)=O [Compound 160, 2-[benzyl-[2-[4-(difluoromethoxy)phenyl]ethyl]amino]-5-methyl-N-methylsulfonyl-thiazole-4-carboxamide]
316	1000	Cc1sc(N(Cc2ccccc2)c2ccc(S(F)(F)(F)(F)F)cc2)nc1C(=O)NS(C)(=O)=O [Example 241, 2-[N-benzyl-4-(pentafluorosulfanyl)anilino]-5-methyl-N-methylsulfonyl-thiazole-4-carboxamide]
200	316	Cc1sc(N(Cc2ccsc2)c2ccc(C#N)cc2)nc1C(=O)NS(C)(=O)=O [Compound 85, 2-[4-cyano-N-(3-thienylmethyl)anilino]-5-methyl-N-methylsulfonyl-thiazole-4-carboxamide]
63.1	126	Cc1sc(N(Cc2cc(F)c(F)cc2F)c2ccc(C#N)cc2)nc1C(=O)NS(C)(=O)=O [Compound 110, 2-[4-cyano-N-[(2,4,5-trifluorophenyl)methyl]anilino]-5-methyl-N-methylsulfonyl-thiazole-4-carboxamide]
25.1	631	Cc1sc(N(CC2CCCCCC2)c2ccc(C#N)cc2)nc1C(=O)NS(C)(=O)=O [Compound 365, 2-[4-cyano-N-(cycloheptylmethyl)anilino]-5-methyl-N-methylsulfonyl-thiazole-4-carboxamide]
31.6	31.6	CS(=O)(=O)NC(=O)c1nc(N(Cc2cccc(Cl)c2)c2ccc(C#N)cc2)sc1Br [Example 247, 5-bromo-2-[N-[(3-chlorophenyl)methyl]-4-cyano-anilino]-N-methylsulfonyl-thiazole-4-carboxamide]
200	631	Cc1sc(N(Cc2cc(C(F)(F)F)ccn2)c2ccc(C#N)cc2)nc1C(=O)NS(C)(=O)=O [Example 186, 2-[4-cyano-N-[[4-(trifluoromethyl)-2-pyridyl]methyl]anilino]-5-methyl-N-methylsulfonyl-thiazole-4-carboxamide]
316	200	COCCCS(=O)(=O)NC(=O)c1nc(N(Cc2ccc(Br)cn2)c2ccc(C#N)cc2)sc1C [Example 188, 2-[N-[(5-bromo-2-pyridyl)methyl]-4-cyano-anilino]-N-(3-methoxypropylsulfonyl)-5-methyl-thiazole-4-carboxamide]
100	5010	CS(=O)(=O)NC(=O)c1nc(N(Cc2ccc(Cl)cn2)c2ccc(C#N)cc2)sc1C1CC1 [Compound 658, 2-[N-[(5-chloro-2-pyridyl)methyl]-4-cyano-anilino]-5-cyclopropyl-N-methylsulfonyl-thiazole-4-carboxamide]
31.6	316	Cc1oc(N(Cc2ccc(Cl)c(Cl)c2)c2ccc(C#N)cc2)nc1C(=O)NS(C)(=O)=O [Compound 608, 2-[4-cyano-N-[(3,4-dichlorophenyl)methyl]anilino]-5-methyl-N-methylsulfonyl-oxazole-4-carboxamide]
1000	> 10000	Cc1sc(N(Cc2ccc(N3CCCC3=O)cc2)c2ccc(C#N)cc2)nc1C(=O)NS(C)(=O)=O [Compound 589, 2-[4-cyano-N-[[4-(2-oxopyrrolidin-1-yl)phenyl]methyl]anilino]-5-methyl-N-methylsulfonyl-thiazole-4-carboxamide]
25.1	31.6	Cc1cccc(CN(c2ccc(C#N)cc2)c2nc(C(=O)NS(C)(=O)=O)c(C)s2)c1 [Compound 16, 2-[4-cyano-N-(m-tolylmethyl)anilino]-5-methyl-N-methylsulfonyl-thiazole-4-carboxamide]
31.6	398	CCCCCCN(c1ccc(C#N)cc1)c1nc(C(=O)NS(C)(=O)=O)c(C)s1 [Compound 75, 2-(4-cyano-N-hexyl-anilino)-5-methyl-N-methylsulfonyl-thiazole-4-carboxamide]
39.8	158	COCCCS(=O)(=O)NC(=O)c1nc(N(Cc2ccc(F)cc2)c2ccc(C#N)cc2)sc1C [Compound 499, 2-[4-cyano-N-[(4-fluorophenyl)methyl]anilino]-N-(3-methoxypropylsulfonyl)-5-methyl-thiazole-4-carboxamide]
39.8	501	Cc1nc(CN(CCc2ccc(OC(F)(F)F)cc2)c2nc(C(=O)NS(C)(=O)=O)c(C)s2)cs1 [Compound 507, 5-methyl-N-methylsulfonyl-2-[(2-methylthiazol-4-yl)methyl-[2-[4-(trifluoromethoxy)phenyl]ethyl]amino]thiazole-4-carboxamide]
15.8	501	CS(=O)(=O)NC(=O)c1nc(N(Cc2ccc(Cl)cc2)c2ccc(C#N)cc2)sc1C1CC1 [Compound 661, 2-[N-[(4-chlorophenyl)methyl]-4-cyano-anilino]-5-cyclopropyl-N-methylsulfonyl-thiazole-4-carboxamide]
